Measured values as given in paper PMC10360995, “Discovery of 3-((3-amino-1H-indazol-4-yl)ethynyl)-N-(4-((4-ethylpiperazin-1-yl)methyl)-3-(trifluoromethyl)phenyl)benzamide (AKE-72), a potent Pan-BCR-ABL inhibitor including the T315I gatekeeper resistant mutant” (Journal of Enzyme Inhibition and Medicinal Chemistry, 2023).
Where two headings read alike, the source gives them in different places.

Columns and labels:
[1] = test system: CCRF-CEM; test: NCI SRB anti-leukemic assay; details: for GI50 / CC50: Homo sapiens, CCRF-CEM; for GI50: read-out: GI50 CCRF-CEM; for CC50: read-out: LC50 (half-maximal lethal concentration) CCRF-CEM; for TGI (total growth inhibition) CCRF-CEM: five-dose assay; for GI % CCRF-CEM: single dose 10 µM
[2] = test system: HL-60(TB); test: cells; details: Homo sapiens; for GI50: HL-60, read-out: GI50 HL-60(TB); for CC50: HL-60, read-out: LC50 (half-maximal lethal concentration) HL-60(TB)
[3] = target: BCR-ABL^WT (Homo sapiens, UniProt P00519); test: BCR-ABL WT kinase inhibition assay; assay type: biochemical; details: for IC50: 10-dose duplicate, 3-fold serial dilution, 10 µM ATP; for fold superior potency against BCR-ABL^WT versus lead indazole II: relative to II
[4] = test system: HL-60(TB); details: five-dose assay
[5] = test system: MOLT-4; test: NCI SRB anti-leukemic assay; details: for GI50 / CC50: Homo sapiens; for GI50: MOLT-4, read-out: GI50 MOLT-4; for CC50: MOLT-4, read-out: LC50 (half-maximal lethal concentration) MOLT-4; for TGI (total growth inhibition) MOLT-4: five-dose assay
[6] = test system: RPMI-8226; test: NCI SRB anti-leukemic assay; details: for GI50 / CC50: Homo sapiens; for GI50: RPMI-8226, read-out: GI50 RPMI-8226; for CC50: RPMI-8226, read-out: LC50 (half-maximal lethal concentration) RPMI-8226; for TGI (total growth inhibition) RPMI-8226: five-dose assay; for GI % RPMI-8226: single dose 10 µM
[7] = test system: SR; test: NCI SRB anti-leukemic assay; details: for GI50 / CC50: Homo sapiens, SR; for GI50: read-out: GI50 SR; for CC50: read-out: LC50 (half-maximal lethal concentration) SR; for TGI (total growth inhibition) SR: five-dose assay
[8] = test system: K-562; test: NCI SRB anti-leukemic assay; details: for GI50 / CC50: Homo sapiens; for GI50: K562, read-out: GI50 K-562; for CC50: K562, read-out: LC50 (half-maximal lethal concentration) K-562
[9] = test system: Ba/F3 mouse pro-B cells; test: Cellular proliferation assay; assay type: cell-based; details: BaF3, read-out: GI50 Ba/F3 (mouse pro-B cell)
Source text: (§1) We also tested AKE-72 against BCR-ABL-positive and BCR-ABL-negative cell lines.
(§2) 1.8. Cytochrome P450 Assay
(§3) The binding site was defined based

[10] = test system: U937 (Bcr-Abl negative); test: Cellular proliferation assay; assay type: cell-based; details: Homo sapiens, U-937, read-out: GI50 U937 (Bcr-Abl negative)
Source text: as §1, §2, §3

[11] = test system: K562 (Bcr-Abl positive); test: Cellular proliferation assay; assay type: cell-based; details: Homo sapiens, K562, read-out: GI50 K562 (Bcr-Abl positive)
Source text: as §1, §2, §3

[12] = target: FMS (Homo sapiens, UniProt P07333); test: Kinase panel profiling at 50 nM; assay type: biochemical; details: range printed for c-Src and FMS together
Method: (§4) Figure 3. Enzyme inhibition percentage (relative to DMSO controls) of compound 5 (0.05 µM) against a panel of 18 kinases.

[13] = target: LCK (Homo sapiens, UniProt P06239); test: Kinase panel profiling at 50 nM; assay type: biochemical; details: range given for ten kinases together
Method: as §4

[14] = target: c-Src (Homo sapiens, UniProt P12931); test: Kinase panel profiling at 50 nM; assay type: biochemical; details: range printed for c-Src and FMS together
Method: as §4

[15] = target: LYN (Homo sapiens, UniProt P07948); test: Kinase panel profiling at 50 nM; assay type: biochemical; details: range given for ten kinases together
Method: as §4

[16] = target: FGFR1 (Homo sapiens, UniProt P11362); test: Kinase panel profiling at 50 nM; assay type: biochemical; details: range given for ten kinases together
Method: as §4

[17] = test system: the other investigated kinases (panel of 18 kinases); test: Kinase panel profiling at 50 nM; assay type: biochemical
Method: as §4

[18] = target: c-Kit (Homo sapiens, UniProt P10721); test: Kinase panel profiling at 50 nM; assay type: biochemical; details: range given for ten kinases together
Method: as §4

[19] = target: RET (Homo sapiens, UniProt P07949); test: Kinase panel profiling at 50 nM; assay type: biochemical; details: range given for ten kinases together
Method: as §4

[20] = target: FYN (Homo sapiens, UniProt P06241); test: Kinase panel profiling at 50 nM; assay type: biochemical; details: range given for ten kinases together
Method: as §4

[21] = target: PDGFRβ (Homo sapiens, UniProt P09619); test: Kinase panel profiling at 50 nM; assay type: biochemical; details: range given for ten kinases together
Method: as §4

[22] = target: YES (Homo sapiens, UniProt P07947); test: Kinase panel profiling at 50 nM; assay type: biochemical; details: range given for ten kinases together
Method: as §4

[23] = target: FLT3 (Homo sapiens, UniProt P36888); test: Kinase panel profiling at 50 nM; assay type: biochemical; details: range given for ten kinases together
Method: as §4

[24] = target: VEGFR2 (Homo sapiens, UniProt P35968); test: Kinase panel profiling at 50 nM; assay type: biochemical; details: range given for ten kinases together
Method: as §4

[25] = target: T1, CYP2C9 (Homo sapiens, UniProt P11712); test: Cytochrome P450 inhibition assay (Vivid CYP450 kit); assay type: in vitro ADME; details: recombinant CYP2C9 (Vivid CYP450 screening kit), single-dose duplicate, read-out: CYP inhibition % CYP2C9
T1 construct: purchased ThermoFisher (Vivid CYP450 screening kit), run at RBC
Source text: (§5) Azole derivatives are well known for their ability to inhibit cytochrome P450 isozymes.
as §2, §3

[26] = target: T2, CYP1A2 (Homo sapiens, UniProt P05177); test: as above; assay type: in vitro ADME
T2 construct: purchased ThermoFisher (Vivid CYP450 screening kit), run at RBC
Source text: as §5, §2, §3

[27] = target: T3, CYP3A4 (Homo sapiens, UniProt P08684); test: as above; assay type: in vitro ADME; details: single-dose duplicate, read-out: CYP inhibition % CYP3A4
T3 construct: purchased ThermoFisher (Vivid CYP450 screening kit), run at RBC
Source text: as §5, §2, §3

[28] = target: T4, CYP2D6 (Homo sapiens, UniProt P10635); test: as above; assay type: in vitro ADME
T4 construct: purchased ThermoFisher (Vivid CYP450 screening kit), run at RBC
Source text: as §5, §2, §3

[29] = target: ABL^Q252H (Homo sapiens, UniProt P00519, Q252H); test: ABL mutant enzymatic assay; assay type: biochemical; details: 10-dose, 3-fold dilution from 20 μM, 10 μM ATP
Source text: (§6) Compound 5 (AKE-72) was further profiled against a number of clinically relevant ABL mutants, including E255K, F317I, H396P, M351T, and Q252H (Table 2). This outcome confirmed the ability of compound 5 to potently suppress the activity of the clinically relevant ABL mutants in single-digit nanomolar IC50 values.

[30] = target: ABL^H396P (Homo sapiens, UniProt P00519, H396P); test: ABL mutant enzymatic assay; assay type: biochemical; details: 10-dose, 3-fold dilution from 20 μM, 10 μM ATP
Source text: as §6

[31] = target: ABL^F317I (Homo sapiens, UniProt P00519, F317I); test: ABL mutant enzymatic assay; assay type: biochemical; details: 10-dose, 3-fold dilution from 20 μM, 10 μM ATP
Source text: as §6

[32] = target: ABL^M351T (Homo sapiens, UniProt P00519, M351T); test: ABL mutant enzymatic assay; assay type: biochemical; details: 10-dose, 3-fold dilution from 20 μM, 10 μM ATP
Source text: as §6

[33] = target: ABL^E255K (Homo sapiens, UniProt P00519, E255K); test: ABL mutant enzymatic assay; assay type: biochemical; details: 10-dose, 3-fold dilution from 20 μM, 10 μM ATP
Source text: as §6

T4 sequence (P10635 whole entry): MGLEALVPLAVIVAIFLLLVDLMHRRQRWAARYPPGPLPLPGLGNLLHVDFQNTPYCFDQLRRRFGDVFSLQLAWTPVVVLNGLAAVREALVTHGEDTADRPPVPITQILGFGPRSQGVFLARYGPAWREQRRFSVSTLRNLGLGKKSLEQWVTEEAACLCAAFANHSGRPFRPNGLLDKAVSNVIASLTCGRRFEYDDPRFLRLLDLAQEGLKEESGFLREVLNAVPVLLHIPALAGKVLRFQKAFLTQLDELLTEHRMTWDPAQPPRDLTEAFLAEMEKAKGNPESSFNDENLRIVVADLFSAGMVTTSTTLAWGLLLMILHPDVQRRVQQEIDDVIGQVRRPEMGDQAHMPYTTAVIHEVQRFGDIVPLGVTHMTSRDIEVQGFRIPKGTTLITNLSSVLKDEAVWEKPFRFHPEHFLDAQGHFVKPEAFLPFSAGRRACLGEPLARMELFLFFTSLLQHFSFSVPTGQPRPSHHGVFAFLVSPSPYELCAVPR
T3 sequence (P08684 whole entry): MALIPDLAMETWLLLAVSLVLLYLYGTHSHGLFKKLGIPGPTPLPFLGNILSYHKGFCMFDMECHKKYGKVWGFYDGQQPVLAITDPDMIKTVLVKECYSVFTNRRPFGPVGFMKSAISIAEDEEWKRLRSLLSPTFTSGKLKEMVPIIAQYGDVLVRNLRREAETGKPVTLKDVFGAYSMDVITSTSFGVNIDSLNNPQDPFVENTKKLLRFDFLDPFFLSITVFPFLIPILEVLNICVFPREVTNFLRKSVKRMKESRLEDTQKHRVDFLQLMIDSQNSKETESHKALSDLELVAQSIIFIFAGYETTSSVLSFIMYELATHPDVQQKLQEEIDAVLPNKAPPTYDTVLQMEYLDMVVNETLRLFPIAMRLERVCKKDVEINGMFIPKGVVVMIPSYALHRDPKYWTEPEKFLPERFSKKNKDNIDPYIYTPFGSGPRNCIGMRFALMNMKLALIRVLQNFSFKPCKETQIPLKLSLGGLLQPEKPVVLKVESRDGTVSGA
T2 sequence (P05177 whole entry): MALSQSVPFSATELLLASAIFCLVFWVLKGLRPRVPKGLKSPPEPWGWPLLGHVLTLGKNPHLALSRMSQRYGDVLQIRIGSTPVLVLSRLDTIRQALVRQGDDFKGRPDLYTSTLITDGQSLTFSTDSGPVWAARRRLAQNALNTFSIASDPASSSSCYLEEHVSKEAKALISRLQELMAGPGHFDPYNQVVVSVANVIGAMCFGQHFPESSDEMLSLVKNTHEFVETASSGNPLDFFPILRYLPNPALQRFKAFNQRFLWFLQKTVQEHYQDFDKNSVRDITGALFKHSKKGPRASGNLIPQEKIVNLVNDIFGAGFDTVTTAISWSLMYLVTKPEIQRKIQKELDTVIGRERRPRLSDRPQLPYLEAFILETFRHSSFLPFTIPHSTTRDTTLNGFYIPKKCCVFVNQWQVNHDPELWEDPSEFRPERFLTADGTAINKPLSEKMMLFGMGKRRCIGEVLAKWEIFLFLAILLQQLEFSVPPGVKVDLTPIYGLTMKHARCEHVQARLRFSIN
RET, sequence (P07949 29-1114): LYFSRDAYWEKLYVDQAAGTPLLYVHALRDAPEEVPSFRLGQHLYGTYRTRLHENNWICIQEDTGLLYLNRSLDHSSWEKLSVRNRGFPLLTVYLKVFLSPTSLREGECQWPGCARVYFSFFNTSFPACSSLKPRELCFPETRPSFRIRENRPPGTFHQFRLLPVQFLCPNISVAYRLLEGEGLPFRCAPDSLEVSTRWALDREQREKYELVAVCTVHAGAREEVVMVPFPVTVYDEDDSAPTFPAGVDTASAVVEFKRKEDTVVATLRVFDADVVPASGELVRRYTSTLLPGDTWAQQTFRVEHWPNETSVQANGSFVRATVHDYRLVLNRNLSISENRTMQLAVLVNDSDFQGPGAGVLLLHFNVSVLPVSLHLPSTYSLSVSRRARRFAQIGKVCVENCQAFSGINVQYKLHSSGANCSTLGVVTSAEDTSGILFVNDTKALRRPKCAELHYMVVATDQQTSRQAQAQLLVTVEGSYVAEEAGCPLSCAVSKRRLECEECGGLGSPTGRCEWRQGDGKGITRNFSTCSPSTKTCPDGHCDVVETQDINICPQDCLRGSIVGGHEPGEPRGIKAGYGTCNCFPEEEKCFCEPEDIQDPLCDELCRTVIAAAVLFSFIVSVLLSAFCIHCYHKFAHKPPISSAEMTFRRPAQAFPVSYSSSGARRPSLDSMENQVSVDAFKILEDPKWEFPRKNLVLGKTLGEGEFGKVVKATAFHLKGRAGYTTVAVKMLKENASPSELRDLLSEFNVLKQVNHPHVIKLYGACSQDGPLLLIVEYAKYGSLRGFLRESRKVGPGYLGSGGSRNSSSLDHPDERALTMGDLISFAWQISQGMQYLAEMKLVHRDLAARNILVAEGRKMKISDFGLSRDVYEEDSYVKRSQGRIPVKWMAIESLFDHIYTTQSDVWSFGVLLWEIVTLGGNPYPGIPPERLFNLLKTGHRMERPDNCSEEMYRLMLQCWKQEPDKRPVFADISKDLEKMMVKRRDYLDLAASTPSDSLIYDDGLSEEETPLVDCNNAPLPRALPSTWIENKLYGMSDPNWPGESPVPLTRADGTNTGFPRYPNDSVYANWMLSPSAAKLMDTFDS
c-Src, sequence (P12931 whole entry): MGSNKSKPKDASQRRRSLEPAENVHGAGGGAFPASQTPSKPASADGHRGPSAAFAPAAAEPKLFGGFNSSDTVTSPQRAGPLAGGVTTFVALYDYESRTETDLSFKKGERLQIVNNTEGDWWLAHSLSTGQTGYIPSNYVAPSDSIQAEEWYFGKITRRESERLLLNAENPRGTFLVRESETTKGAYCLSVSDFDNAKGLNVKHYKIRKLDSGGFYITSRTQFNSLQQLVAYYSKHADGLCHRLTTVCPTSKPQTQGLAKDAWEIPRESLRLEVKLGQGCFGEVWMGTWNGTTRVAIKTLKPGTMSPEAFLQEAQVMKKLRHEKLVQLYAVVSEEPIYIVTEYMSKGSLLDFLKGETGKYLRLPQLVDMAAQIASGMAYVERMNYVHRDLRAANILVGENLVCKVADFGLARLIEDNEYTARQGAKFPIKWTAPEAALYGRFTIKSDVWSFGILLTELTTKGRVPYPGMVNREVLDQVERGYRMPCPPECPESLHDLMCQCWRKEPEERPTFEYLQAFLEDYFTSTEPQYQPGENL
LCK, sequence (P06239 whole entry): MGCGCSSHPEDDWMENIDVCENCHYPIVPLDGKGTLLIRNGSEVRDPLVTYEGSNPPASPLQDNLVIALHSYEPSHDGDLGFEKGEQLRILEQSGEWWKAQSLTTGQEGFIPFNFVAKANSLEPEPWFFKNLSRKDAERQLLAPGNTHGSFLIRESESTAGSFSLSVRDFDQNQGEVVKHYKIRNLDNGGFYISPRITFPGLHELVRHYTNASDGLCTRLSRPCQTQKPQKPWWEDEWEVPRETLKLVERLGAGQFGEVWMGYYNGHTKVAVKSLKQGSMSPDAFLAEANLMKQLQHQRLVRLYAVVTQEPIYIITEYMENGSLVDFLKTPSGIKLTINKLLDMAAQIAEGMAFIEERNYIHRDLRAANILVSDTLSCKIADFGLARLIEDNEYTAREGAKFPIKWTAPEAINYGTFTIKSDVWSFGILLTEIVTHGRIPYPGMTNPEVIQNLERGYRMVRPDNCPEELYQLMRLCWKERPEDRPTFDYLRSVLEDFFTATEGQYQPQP
PDGFRβ, sequence (P09619 33-1106): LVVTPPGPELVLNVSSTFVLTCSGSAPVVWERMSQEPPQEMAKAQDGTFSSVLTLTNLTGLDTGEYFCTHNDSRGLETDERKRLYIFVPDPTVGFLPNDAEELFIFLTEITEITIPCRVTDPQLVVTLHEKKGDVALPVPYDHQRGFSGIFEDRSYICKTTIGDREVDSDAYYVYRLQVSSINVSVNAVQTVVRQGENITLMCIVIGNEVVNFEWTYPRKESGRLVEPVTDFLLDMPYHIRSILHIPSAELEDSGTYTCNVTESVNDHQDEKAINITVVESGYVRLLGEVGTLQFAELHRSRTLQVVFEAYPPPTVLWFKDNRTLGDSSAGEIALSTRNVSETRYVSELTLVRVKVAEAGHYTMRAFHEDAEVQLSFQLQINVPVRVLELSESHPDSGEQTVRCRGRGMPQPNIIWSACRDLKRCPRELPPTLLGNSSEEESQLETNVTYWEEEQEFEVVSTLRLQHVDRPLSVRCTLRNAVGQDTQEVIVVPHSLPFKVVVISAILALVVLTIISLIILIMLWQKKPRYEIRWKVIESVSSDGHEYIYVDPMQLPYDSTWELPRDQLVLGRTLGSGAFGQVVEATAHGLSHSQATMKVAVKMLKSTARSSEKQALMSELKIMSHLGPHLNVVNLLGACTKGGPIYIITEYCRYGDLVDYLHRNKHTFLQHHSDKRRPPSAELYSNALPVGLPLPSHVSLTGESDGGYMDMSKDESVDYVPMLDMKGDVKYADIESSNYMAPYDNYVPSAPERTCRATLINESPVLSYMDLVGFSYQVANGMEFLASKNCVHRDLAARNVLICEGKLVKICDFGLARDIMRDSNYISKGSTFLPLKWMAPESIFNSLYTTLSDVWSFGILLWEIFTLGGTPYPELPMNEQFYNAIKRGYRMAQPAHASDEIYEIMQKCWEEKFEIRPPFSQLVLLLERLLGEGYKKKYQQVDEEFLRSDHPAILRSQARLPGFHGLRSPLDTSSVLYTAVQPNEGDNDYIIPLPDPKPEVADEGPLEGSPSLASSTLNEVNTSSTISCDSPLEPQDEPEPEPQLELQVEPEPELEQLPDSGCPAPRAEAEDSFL

CN1CCN(Cc2ccc(C(=O)Nc3cccc(C#Cc4cccc5[nH]nc(N)c45)c3)cc2C(F)(F)F)CC1 [Compound 4a]
GI50 [1]: 1.22 µM
CC50 [1]: 8.3 µM
TGI (total growth inhibition) CCRF-CEM [1]: 3.18 µM
GI % CCRF-CEM [1]: L (lethal effect (% GI > 100))
GI50 [2]: 0.278 µM
CC50 [2]: 7.33 µM
IC50 [3]: < 0.00051 µM
fold superior potency against BCR-ABL^WT versus lead indazole II [3]: > 300 folds
TGI (total growth inhibition) HL-60(TB) [4]: 1.6 µM
GI50 [5]: 0.494 µM
CC50 [5]: 7.57 µM
TGI (total growth inhibition) MOLT-4 [5]: 2.28 µM
GI50 [6]: 1.22 µM
CC50 [6]: 9.52 µM
TGI (total growth inhibition) RPMI-8226 [6]: 3.26 µM
GI % RPMI-8226 [6]: L (lethal effect (% GI > 100))
GI50 [7]: 1.1 µM
CC50 [7]: > 100 µM
TGI (total growth inhibition) SR [7]: 3.35 µM
GI50 [8]: < 0.01 µM
CC50 [8]: 6.03 µM
TGI (total growth inhibition) K-562 ([8]; five-dose assay): 1.02 µM

CCN1CCN(Cc2ccc(C(=O)Nc3cccc(C#Cc4cccc5[nH]nc(N)c45)c3)cc2C(F)(F)F)CC1 [Compound 4b]
GI50 [1]: 1.6 µM
CC50 [1]: 8.16 µM
TGI (total growth inhibition) CCRF-CEM [1]: 3.62 µM
GI % CCRF-CEM [1]: 96.4%
GI50 [2]: 0.593 µM
IC50 [3]: 0.00064 ± 9.9e-06 µM
TGI (total growth inhibition) HL-60(TB) [4]: 2.61 µM
GI50 [5]: 1.42 µM
TGI (total growth inhibition) MOLT-4 [5]: 3.57 µM
GI50 [6]: 1.59 µM
CC50 [6]: 9.71 µM
TGI (total growth inhibition) RPMI-8226 [6]: 3.92 µM
GI % RPMI-8226 [6]: L (lethal effect (% GI > 100))
GI50 [7]: 1.78 µM
CC50 [7]: > 100 µM
TGI (total growth inhibition) SR [7]: 4.59 µM
GI50 [8]: < 1 µM
TGI (total growth inhibition) K-562 ([8]; five-dose assay): 1.14 µM

CCN1CCN(Cc2ccc(NC(=O)c3cccc(C#Cc4cccc5[nH]nc(N)c45)c3)cc2C(F)(F)F)CC1 [Compound 5, 3-((3-amino-1H-indazol-4-yl)ethynyl)-N-(4-((4-ethylpiperazin-1-yl)methyl)-3-(trifluoromethyl)phenyl)benzamide]
GI50 [1]: 0.436 µM
CC50 [1]: > 100 µM
TGI (total growth inhibition) CCRF-CEM [1]: 3.04 µM
GI50 [9]: 4 ± 1.17 µM
GI50 [10]: 1.9 ± 0.061 µM
GI50 [11]: 0.0059 µM
GI50 [2]: 0.0979 µM
CC50 [2]: 5.17 µM
IC50 [3]: < 0.00051 µM
fold superior potency against BCR-ABL^WT versus lead indazole II [3]: > 300 folds
inhibition at 0.05 µM [12]: 64.5 to 73%
inhibition at 0.05 µM [13]: 83.9 to 99.3%
inhibition at 0.05 µM [14]: 64.5 to 73%
inhibition at 0.05 µM [15]: 83.9 to 99.3%
inhibition at 0.05 µM [16]: 83.9 to 99.3%
inhibition of the other investigated kinases [17]: no inhibition
inhibition at 0.05 µM [18]: 83.9 to 99.3%
inhibition at 0.05 µM [19]: 83.9 to 99.3%
inhibition at 0.05 µM [20]: 83.9 to 99.3%
inhibition at 0.05 µM [21]: 83.9 to 99.3%
inhibition at 0.05 µM [22]: 83.9 to 99.3%
inhibition at 0.05 µM [23]: 83.9 to 99.3%
inhibition at 0.05 µM [24]: 83.9 to 99.3%
TGI (total growth inhibition) HL-60(TB) [4]: 1.04 µM
GI50 [5]: 0.227 µM
CC50 [5]: 5.13 µM
TGI (total growth inhibition) MOLT-4 [5]: 1.16 µM
GI50 [6]: 0.488 µM
CC50 [6]: > 100 µM
TGI (total growth inhibition) RPMI-8226 [6]: 2.66 µM
inhibition at 10 µM [25]: 50.67 ± 0.075%
IC50 [26]: > 10 µM
inhibition at 10 µM ([26]; human, recombinant CYP1A2 (Vivid CYP450 screening kit), 10 µM, single-dose duplicate, read-out: CYP inhibition % CYP1A2): 9.88 ± 0.09%
inhibition at 10 µM ([27]; Vivid CYP450 screening kit (CYP3A4 isozyme)): 90.6%
inhibition at 10 µM ([27]; recombinant CYP3A4 (Vivid CYP450 screening kit)): 96.57 ± 0.065%
IC50 [28]: > 10 µM
inhibition at 10 µM ([28]; human, recombinant CYP2D6 (Vivid CYP450 screening kit), 10 µM, single-dose duplicate, read-out: CYP inhibition % CYP2D6): 13.92 ± 0.06%
GI50 [7]: 0.238 µM
CC50 [7]: > 100 µM
TGI (total growth inhibition) SR [7]: 0.732 µM
GI50 [8]: < 0.01 µM
CC50 [8]: 5.25 µM
TGI (total growth inhibition) K-562 ([8]; five-dose assay): 0.154 µM
TGI K-562 ([8]; five-dose assay): 0.154 µM
IC50 [29]: 0.00388 µM
IC50 [30]: < 0.00102 µM
IC50 [31]: 0.00312 µM
IC50 [32]: 0.00344 µM
IC50 [33]: 0.00898 µM
